pIC50: −log10 of the molar value. Like-named read-outs stand apart in the source and are kept apart here.
Legend:
HMVEC = assay: Cell proliferation and cytotoxicity MTT assay, HMVEC; assay type: cell-based; details: 72 hours culture
Method: (§1) The wells of microtiter plates were seeded with 2000 cells/well T24, 2500 cells/well HT29 or 5000 cells/well HMVEC (Cell Systems) in 100 uL, followed by an overnight culture for cell adhesion. The next day, the media is supplemented with 100 uL of 10-fold dilution of compound of interest starting at 10 uM. Following culture for 72 hours, 3-(4,5-dimethyl-2-thiazolyl)-2,5-diphenyltetrazolium bromide (MTT; Sigma) at 2 mg/mL was added to each well (50 uL/well) and further incubated for 4 hours at 37° C. The medium was flicked out and 200 uL of a 1:1 solution of ethanol:acetone followed by 25 uL of glycine buffer (0.1 M glycine, 0.1M NaCl, pH 10.5) is added and the color measured by the absorbance at 570 nm.

GP IIb-IIIa (αIIbβ3) = biological target: T1, GP IIb-IIIa (αIIbβ3) (Homo sapiens, UniProt P05106+P08514); assay: Fibrinogen binding to immobilized GP IIb-IIIa (αIIbβ3)
T1 construct: purchased Calbiochem
Method: (§2) The wells of plastic microtiter plates were coated overnight at 4° C. with purified active αIIbβ3 (Calbiochem) or placental αvβ3 at 0.5 ug/mL (100 uL/well) in a buffer containing 150 mM NaCl, 20 mM Tris, pH 7.4, 1 mM MgCl2, 0.2 mM MnCl2, and including 1 mM CaCl2 for αIIbβ3. Blocking of nonspecific sites was achieved by incubating the wells with 35 mg/mL bovine serum albumin (BSA) for at least 2 hours at 37° C. Biotinylated-fibrinogen (10 nM) was added in 0.2 mL binding buffer (100 mM NaCl, 50 mM Tris, pH 7.4, 1 mM MgCl2, 0.2 mM MnCl2 and 1 mg/mL BSA including 1 mM CaCl2 for αIIbβ3) to the wells in triplicate in the absence or presence of increasing concentrations of compounds of interest (0.001-100 uM) and further incubated for 2 hours at 37° C. Nonbound fibrinogen was removed by five washes with binding buffer. Avidin conjugated to alkaline phosphatase (Sigma), diluted in binding buffer, was added and incubated for two hours at 37° C. The plates were washed five times with binding buffer, and after addition of the substrate PNPP (Pierce), the enzyme activity was measured by the absorbance at 405 nm.

[1] = test system: Chick chorioallantoic membrane (CAM) capillary formation driven by VPF/VEGF165; assay: Chick chorioallantoic membrane (CAM) mesh assay; assay type: in vivo, chicken; details: significant if >25%
Method: Fertilized white leghorn chicken eggs (SPAFAS Inc., Norwich, Conn.) were received at day 0 and incubated for 3 days at 37 C with constant humidity. On day 3, eggs were rinsed with 70% ethanol and opened into 100 mm^2 tissue culture coated Petri dishes under aseptic conditions. The embryos were then returned to a humidified 38 C incubator for 7-9 additional days.
Vitrogen (Collagen Biomaterials, Palo Alto, Calif.) at a final concentration of 0.73 mg/mL and Matrigel (Becton Dickinson, Bedford, Mass.) at a final concentration of 10 mg/mL was directly pipetted onto Nylon meshes with 250 μm^2 openings which were cut into 4 mm×4 mm squares and autoclaved. Polymerization of meshes were under aseptic conditions, on bacteriological Petri dishes. The polymerization conditions for each substrate were identical; after mixing with or without 250 μg of VPF/VEGF165 (Peprotech, Rocky Hill, N.J.) and/or compounds of interest, 40 μL were pipetted onto each mesh in a bacteriological Petri dish. The Petri dish was placed in a humidified 37 C incubator with 5% CO2 for 30 minutes to allow polymerization followed by an incubation at 4° C. for 2 hours.
In a tissue culture enclosure, meshes were placed onto the periphery of the CAM of a day 12-14 embryo, excluding areas containing major vessels. The embryos were then returned to the humidified 38° C. incubator with 3% CO2 for 24 to 48 additional hours.
Embryos were removed from the incubator and meshes were viewed under a dissecting microscope for gross evaluation. Injection of 400 μL FITC dextran, MW 2,000,000 (Sigma, St. Louis, Mo.) through glass microcapillary tubes by infusion into the umbilical vein was performed at a rate of 200 μl per minute. The FITC dextran was allowed to circulate for 5 minutes and 3.7% formaldehyde in PBS was applied directly on each mesh. The embryos were then incubated at 40° C. for 5 minutes and the meshes were dissected off the CAM and fixed in 3.7% formaldehyde for 10 minutes to overnight.
After fixation, meshes were mounted on slides with 90% glycerol in PBS and visualized on an inverted fluorescence microscope. A Nikon Diaphot with a Sony DXC-151A camera attached to the side port was used for capture of images and analysis was with the NIH Image 1.61 software program. For each mesh, 5 random staggered images (approximately 600 μm each) were captured. The areas of high intensity were highlighted and measured. Results are expressed as ability to suppress capillary formation after subtraction from negative control. Values were calculated as a inhibition, considering 100% the capillary density achieved by VPF in the presence of vitrogen alone minus the bakground levels in the absence of VPF. Negative values indicated angiogenic stimulation above the VPF positive control.

αvβ3 = biological target: T2, αvβ3 (Homo sapiens, UniProt P05106+P06756); assay: Cell adhesion assay, K562-tr on osteopontin; assay type: cell-based
T2 construct: expressed in transfected cells; host or cells: K562
Method: (§3) The wells of 96-well plates (Immunolon) were coated, by incubation overnight at 4° C., with 5 ug/mL vitronectin, 2 ug/mL osteopontin, or fibronectin or 10 mg/mL BSA in PBS. The protein solution was flicked out and the wells were blocked with 10 mg/mL BSA (0.1 mL) for 1-2 hours at 37° C. […] Cells were lifted with trypsin-EDTA and washed two times with Hank's balanced salt solution minus cations (Sigma) supplemented with 1 mM MgCl2 Cells (75,000 cells/well) were added to coated plates in triplicate and allowed to attach at 37° C. for 1 hour in the presence or absence of specific antibodies (5 ug/mL) or 10-fold dilutions of compounds of interest starting at 10 uM. Nonadherent cells were removed by gentle washing twice with PBS. The adherent cells were solubilized with 1% triton x-100 and detected using a fluorescence plate reader (DYNEX Technologies). The number of attached cells was calculated based upon standard curves for each cell line used in the experiment.

placental αvβ3 = biological target: T3, placental αvβ3 (Homo sapiens, UniProt P05106+P06756); assay: Fibrinogen binding to immobilized αvβ3
T3 construct: placental αvβ3 at 0.5 ug/mL; from tissue; host or cells: placenta
Method: as §2

α5β1 = biological target: T4, α5β1 (Homo sapiens, UniProt P05556+P08648); assay: Cell adhesion assay, K562 on fibronectin; assay type: cell-based; details: K562 cells, adhesion to fibronectin, 1 hour
T4 construct: Cells HT29, K562, or K562 transfected with αvβ3; endogenous in cells; host or cells: K562
Method: The wells of 96-well plates (Immunolon) were coated, by incubation overnight at 4° C., with 5 ug/mL vitronectin, 2 ug/mL osteopontin, or fibronectin or 10 mg/mL BSA in PBS. The protein solution was flicked out and the wells were blocked with 10 mg/mL BSA (0.1 mL) for 1-2 hours at 37° C. Cells HT29, K562, or K562 transfected with αvβ3 (Blystone et al., 1994) were loaded with a fluorescent marker, 5-chloromethylfluorescein diacetate (Molecular Probes, Eugene, Oreg.) for 1 hour at 37° C., then incubated in fresh medium without the fluorescent marker for 1 hour. Cells were lifted with trypsin-EDTA and washed two times with Hank's balanced salt solution minus cations (Sigma) supplemented with 1 mM MgCl2 Cells (75,000 cells/well) were added to coated plates in triplicate and allowed to attach at 37° C. for 1 hour in the presence or absence of specific antibodies (5 ug/mL) or 10-fold dilutions of compounds of interest starting at 10 uM. Nonadherent cells were removed by gentle washing twice with PBS. The adherent cells were solubilized with 1% triton x-100 and detected using a fluorescence plate reader (DYNEX Technologies). The number of attached cells was calculated based upon standard curves for each cell line used in the experiment. Non-specific cell attachment (attachment to wells coated with BSA) was always less than 5%.

αvβ5 = biological target: T5, αvβ5 (Homo sapiens, UniProt P06756+P18084); assay: Cell adhesion assay, HT29 on vitronectin; assay type: cell-based
T5 construct: Cells HT29, K562, or K562 transfected with αvβ3; endogenous in cells; host or cells: HT29
Method: as §3

HT29 = assay: Cell proliferation and cytotoxicity MTT assay, HT29; assay type: cell-based
Method: as §1

T1 sequence (P08514 32-887 limits assumed): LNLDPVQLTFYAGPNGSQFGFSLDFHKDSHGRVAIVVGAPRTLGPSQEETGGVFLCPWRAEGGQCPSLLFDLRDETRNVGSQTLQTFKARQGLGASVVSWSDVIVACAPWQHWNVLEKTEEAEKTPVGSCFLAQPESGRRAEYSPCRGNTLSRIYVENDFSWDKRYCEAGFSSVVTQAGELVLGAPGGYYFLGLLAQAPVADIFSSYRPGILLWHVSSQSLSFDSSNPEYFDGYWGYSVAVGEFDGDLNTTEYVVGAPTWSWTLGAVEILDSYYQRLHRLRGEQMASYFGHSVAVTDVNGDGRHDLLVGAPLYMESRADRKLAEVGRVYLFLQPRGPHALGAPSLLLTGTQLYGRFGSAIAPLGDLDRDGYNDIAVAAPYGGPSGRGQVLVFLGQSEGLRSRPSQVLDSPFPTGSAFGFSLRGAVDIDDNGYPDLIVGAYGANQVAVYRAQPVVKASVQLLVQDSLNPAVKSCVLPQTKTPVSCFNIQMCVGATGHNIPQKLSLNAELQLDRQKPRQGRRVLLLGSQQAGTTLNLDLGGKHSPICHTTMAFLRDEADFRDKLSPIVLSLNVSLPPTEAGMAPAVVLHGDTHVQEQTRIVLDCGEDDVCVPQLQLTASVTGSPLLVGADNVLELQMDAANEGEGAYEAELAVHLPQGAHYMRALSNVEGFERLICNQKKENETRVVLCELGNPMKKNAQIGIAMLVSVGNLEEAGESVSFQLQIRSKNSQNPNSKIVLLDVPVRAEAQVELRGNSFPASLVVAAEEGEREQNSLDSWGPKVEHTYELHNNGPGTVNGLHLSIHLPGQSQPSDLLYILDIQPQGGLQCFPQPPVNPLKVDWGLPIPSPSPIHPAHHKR
T1 sequence (P08514 891-1039 partner limits assumed): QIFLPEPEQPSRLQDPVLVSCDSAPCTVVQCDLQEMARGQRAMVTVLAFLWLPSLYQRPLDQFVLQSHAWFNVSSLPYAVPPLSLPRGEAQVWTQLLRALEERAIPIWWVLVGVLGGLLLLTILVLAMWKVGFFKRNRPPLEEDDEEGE
T1 sequence (P05106 27-788): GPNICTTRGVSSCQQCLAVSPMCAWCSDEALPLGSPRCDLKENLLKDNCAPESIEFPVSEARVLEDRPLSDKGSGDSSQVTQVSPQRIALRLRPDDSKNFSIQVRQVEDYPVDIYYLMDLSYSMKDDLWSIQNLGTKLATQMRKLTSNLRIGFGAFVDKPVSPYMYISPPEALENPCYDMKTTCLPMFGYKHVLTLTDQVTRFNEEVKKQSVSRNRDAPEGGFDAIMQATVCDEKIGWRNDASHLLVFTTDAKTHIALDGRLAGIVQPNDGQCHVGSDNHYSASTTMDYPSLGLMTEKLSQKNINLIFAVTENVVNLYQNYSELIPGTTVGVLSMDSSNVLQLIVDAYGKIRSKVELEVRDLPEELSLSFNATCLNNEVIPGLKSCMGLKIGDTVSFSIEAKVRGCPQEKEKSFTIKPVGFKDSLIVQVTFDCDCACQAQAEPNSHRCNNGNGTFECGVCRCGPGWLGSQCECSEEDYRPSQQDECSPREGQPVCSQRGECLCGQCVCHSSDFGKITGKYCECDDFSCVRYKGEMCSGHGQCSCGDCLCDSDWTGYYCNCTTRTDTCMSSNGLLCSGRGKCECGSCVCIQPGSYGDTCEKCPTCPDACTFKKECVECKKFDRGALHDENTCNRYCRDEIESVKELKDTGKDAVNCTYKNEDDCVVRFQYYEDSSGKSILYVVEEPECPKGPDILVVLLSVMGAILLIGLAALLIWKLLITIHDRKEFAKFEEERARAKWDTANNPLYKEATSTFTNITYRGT
T3 sequence (P06756 31-889 limits assumed): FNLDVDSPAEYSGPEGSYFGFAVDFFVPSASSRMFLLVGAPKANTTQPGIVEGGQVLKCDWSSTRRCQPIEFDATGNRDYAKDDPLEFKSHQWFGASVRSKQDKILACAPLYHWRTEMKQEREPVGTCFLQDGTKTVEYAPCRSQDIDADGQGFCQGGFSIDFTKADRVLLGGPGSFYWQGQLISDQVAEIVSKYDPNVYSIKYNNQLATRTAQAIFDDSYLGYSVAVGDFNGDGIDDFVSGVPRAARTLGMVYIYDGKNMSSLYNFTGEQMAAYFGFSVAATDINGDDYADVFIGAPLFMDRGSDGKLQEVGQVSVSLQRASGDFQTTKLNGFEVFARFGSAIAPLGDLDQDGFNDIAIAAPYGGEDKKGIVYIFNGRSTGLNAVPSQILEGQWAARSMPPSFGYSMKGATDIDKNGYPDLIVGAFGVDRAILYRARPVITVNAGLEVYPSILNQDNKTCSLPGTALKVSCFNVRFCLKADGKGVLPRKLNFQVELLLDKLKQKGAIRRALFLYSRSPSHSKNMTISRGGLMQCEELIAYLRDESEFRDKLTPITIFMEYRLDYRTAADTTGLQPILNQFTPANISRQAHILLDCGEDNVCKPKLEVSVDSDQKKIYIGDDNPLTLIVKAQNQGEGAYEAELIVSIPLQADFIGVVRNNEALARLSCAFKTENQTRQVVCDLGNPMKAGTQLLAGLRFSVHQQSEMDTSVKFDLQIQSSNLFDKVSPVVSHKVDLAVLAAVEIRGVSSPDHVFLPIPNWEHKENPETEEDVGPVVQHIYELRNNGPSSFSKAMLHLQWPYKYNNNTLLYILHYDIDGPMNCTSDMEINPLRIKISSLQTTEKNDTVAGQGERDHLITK
T3 sequence (P06756 891-1048 partner limits assumed): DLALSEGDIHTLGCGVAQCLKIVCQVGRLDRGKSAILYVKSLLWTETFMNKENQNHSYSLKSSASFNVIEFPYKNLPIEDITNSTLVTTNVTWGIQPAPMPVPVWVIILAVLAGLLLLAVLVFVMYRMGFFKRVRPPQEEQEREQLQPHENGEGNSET
T3 sequence (P05106 27-788): as the sequence (P05106 27-788) above
T2 sequence (P06756 31-889 limits assumed): as the sequence (P06756 31-889 limits assumed) above
T2 sequence (P06756 891-1048 partner limits assumed): as the sequence (P06756 891-1048 partner limits assumed) above
T2 sequence (P05106 27-788): as the sequence (P05106 27-788) above
T5 sequence (P06756 31-889 limits assumed): as the sequence (P06756 31-889 limits assumed) above
T5 sequence (P06756 891-1048 partner limits assumed): as the sequence (P06756 891-1048 partner limits assumed) above
T5 sequence (P18084 24-799): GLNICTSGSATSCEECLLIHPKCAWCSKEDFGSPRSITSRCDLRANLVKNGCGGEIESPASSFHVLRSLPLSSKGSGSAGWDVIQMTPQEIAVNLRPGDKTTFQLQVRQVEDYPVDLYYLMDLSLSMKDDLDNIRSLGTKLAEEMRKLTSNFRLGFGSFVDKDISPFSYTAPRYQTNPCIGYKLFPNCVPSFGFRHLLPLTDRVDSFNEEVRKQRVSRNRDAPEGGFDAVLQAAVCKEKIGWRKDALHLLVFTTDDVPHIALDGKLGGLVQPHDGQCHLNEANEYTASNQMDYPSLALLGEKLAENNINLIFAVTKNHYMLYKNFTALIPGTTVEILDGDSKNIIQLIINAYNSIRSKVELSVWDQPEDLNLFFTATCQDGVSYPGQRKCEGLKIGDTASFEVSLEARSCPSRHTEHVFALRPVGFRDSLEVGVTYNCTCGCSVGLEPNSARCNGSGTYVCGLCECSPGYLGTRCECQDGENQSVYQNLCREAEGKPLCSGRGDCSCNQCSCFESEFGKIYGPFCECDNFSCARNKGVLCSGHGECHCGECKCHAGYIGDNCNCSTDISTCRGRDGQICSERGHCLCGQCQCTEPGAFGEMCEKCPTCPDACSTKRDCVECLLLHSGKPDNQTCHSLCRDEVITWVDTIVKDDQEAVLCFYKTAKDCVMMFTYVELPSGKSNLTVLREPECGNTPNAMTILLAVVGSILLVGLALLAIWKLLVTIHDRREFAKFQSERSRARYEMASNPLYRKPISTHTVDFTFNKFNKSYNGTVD

| Molecule | pIC50 (HMVEC; HMVEC) | pIC50 (GP IIb-IIIa (αIIbβ3)) | % of inhibition at 33 μg/mesh in the presence of VEGF [1] [%] | pIC50 (αvβ3) | pIC50 (placental αvβ3) | pIC50 (α5β1) | pIC50 (αvβ5) | pIC50 (HT29; Homo sapiens, HT-29, 72 hours culture) | pIC50 (HMVEC) | pIC50 (GP IIb-IIIa (αIIbβ3); biotinylated-fibrinogen (10 nM) binding to immobilized αIIbβ3, read-out: IC50 αIIbβ3) | pIC50 (αvβ3; K562 transfected with αvβ3, adhesion to osteopontin, 1 hour, read-out: IC50 K562-tr Osteopontin (αvβ3)) | pIC50 (placental αvβ3; biotinylated-fibrinogen (10 nM) binding to immobilized αvβ3, read-out: IC50 αvβ3) | pIC50 (αvβ5; HT29 cells, adhesion to vitronectin, 1 hour, read-out: IC50 HT29 Vitronectin (αvβ5)) | pIC50 (HT29; 72 hours culture) |
| --- | --- | --- | --- | --- | --- | --- | --- | --- | --- | --- | --- | --- | --- | --- |
| N=C(N)NCCNC(=O)c1ccc(C(=O)NCC(Nc2ncccn2)C(=O)O)s1.O=C(O)C(F)(F)F.O=C(O)C(F)(F)F (stereo not shown) [Compound XXX, 3-{[5-(2-guanidino-ethylcarbamoyl)-thiophene-2-carbonyl]-amino}-2-(pyrimidin-2-ylamino)-propionic acid bis trifluoroacetic acid salt] | < 5.00 | 6.16 | 31 | 5.47 | 6.82 | < 5.00 | < 5.00 | < 5.00 | – | – | – | – | – | – |
| (2S)2-Benzenesulfonylamino-3-[5-(2-guanidinyl-ethylcarbamoyl)-thiophen-2-carbonyl]-amino propionic acid hydrochloride salt [Compound XI] | – | – | 38 | – | – | 5.28 | – | – | 6.06 | 9.51 | 7.06 | 9.24 | 6.68 | 5.00 |
